Test system: P12-Ichikawa
Assay: cell viability relative to DMSO control; higher = less cytotoxic
Conditions: 48 h
In short: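 Leukemia cells (NOMO1 or SEM, 500 cells/well; P12-Ichikawa, 1000 cells/well) were seeded in 5 μl in 1536-well plates after at least four passages of adaptation to each medium. They received library compounds in DMSO by pin dosing, 11 threefold points from 47 μM to 0.79 nM. Luminescence with CellTiter-Glo One was read after 48 h at 37°C. Viability is stated per plate relative to DMSO wells, with cell-free wells as background.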

[1] = HPLM + 10% dialyzed FBS, 0.000781 µM
[2] = HPLM + 10% dialyzed FBS, 0.00234 µM
[3] = HPLM + 10% dialyzed FBS, 0.00702 µM
[4] = HPLM + 10% dialyzed FBS, 0.0211 µM
[5] = HPLM + 10% dialyzed FBS, 0.0632 µM
[6] = HPLM + 10% dialyzed FBS, 0.19 µM
[7] = HPLM + 10% dialyzed FBS, 0.569 µM
[8] = HPLM + 10% dialyzed FBS, 1.71 µM
[9] = HPLM + 10% dialyzed FBS, 5.12 µM
[10] = HPLM + 10% dialyzed FBS, 15.4 µM
[11] = HPLM + 10% dialyzed FBS, 46.1 µM
[12] = RPMI 5 mM glucose + 10% FBS, 0.000781 µM
[13] = RPMI 5 mM glucose + 10% FBS, 0.00234 µM
[14] = RPMI 5 mM glucose + 10% FBS, 0.00702 µM
[15] = RPMI 5 mM glucose + 10% FBS, 0.0211 µM
[16] = RPMI 5 mM glucose + 10% FBS, 0.0632 µM
[17] = RPMI 5 mM glucose + 10% FBS, 0.19 µM
[18] = RPMI 5 mM glucose + 10% FBS, 0.569 µM
[19] = RPMI 5 mM glucose + 10% FBS, 1.71 µM
[20] = RPMI 5 mM glucose + 10% FBS, 5.12 µM
[21] = RPMI 5 mM glucose + 10% FBS, 15.4 µM
[22] = RPMI 5 mM glucose + 10% FBS, 46.1 µM
[23] = RPMI 5 mM glucose + 10% dialyzed FBS, 0.000781 µM
[24] = RPMI 5 mM glucose + 10% dialyzed FBS, 0.00234 µM
[25] = RPMI 5 mM glucose + 10% dialyzed FBS, 0.00702 µM
[26] = RPMI 5 mM glucose + 10% dialyzed FBS, 0.0211 µM
[27] = RPMI 5 mM glucose + 10% dialyzed FBS, 0.0632 µM
[28] = RPMI 5 mM glucose + 10% dialyzed FBS, 0.19 µM
[29] = RPMI 5 mM glucose + 10% dialyzed FBS, 0.569 µM
[30] = RPMI 5 mM glucose + 10% dialyzed FBS, 1.71 µM
[31] = RPMI 5 mM glucose + 10% dialyzed FBS, 5.12 µM
[32] = RPMI 5 mM glucose + 10% dialyzed FBS, 15.4 µM
[33] = RPMI 5 mM glucose + 10% dialyzed FBS, 46.1 µM

Row | SMILES | cell viability [1] [%] | cell viability [2] [%] | cell viability [3] [%] | cell viability [4] [%] | cell viability [5] [%] | cell viability [6] [%] | cell viability [7] [%] | cell viability [8] [%] | cell viability [9] [%] | cell viability [10] [%] | cell viability [11] [%] | cell viability [12] [%] | cell viability [13] [%] | cell viability [14] [%] | cell viability [15] [%] | cell viability [16] [%] | cell viability [17] [%] | cell viability [18] [%] | cell viability [19] [%] | cell viability [20] [%] | cell viability [21] [%] | cell viability [22] [%] | cell viability [23] [%] | cell viability [24] [%] | cell viability [25] [%] | cell viability [26] [%] | cell viability [27] [%] | cell viability [28] [%] | cell viability [29] [%] | cell viability [30] [%] | cell viability [31] [%] | cell viability [32] [%] | cell viability [33] [%]
1 | O=C1NC(=O)/C(=C/c2ccc3nccnc3c2)S1 | 111 | 111 | 117 | 107 | 115 | 122 | 102 | 116 | 103 | 97.5 | 99.7 | 110 | 112 | 119 | 114 | 115 | 109 | 98.7 | 106 | 95.2 | 95.9 | 91.4 | 110 | 111 | 126 | 123 | 114 | 113 | 115 | 102 | 96.2 | 104 | 97.1
2 | CO[C@@H](C(=O)N1Cc2[nH]nc(NC(=O)c3ccc(N4CCN(C)CC4)cc3)c2C1)c1ccccc1 | 89.1 | 93.6 | 93 | 95.9 | 80 | 35.4 | 15 | 20.3 | 23.2 | 25 | 50.8 | 90 | 87.3 | 84.9 | 89 | 75.9 | 30.3 | 19.9 | 28.9 | 28.3 | 26.1 | 42.3 | 87.1 | 95.8 | 95.9 | 95.5 | 82.8 | 34.5 | 28.4 | 37.9 | 39.4 | 42.8 | 54.8
3 | CC1(C)SCCN([S+](=O)([O-])c2ccc(OCC#CCO)cc2)[C@H]1C(=O)NO | 103 | 108 | 107 | 98.9 | 104 | 103 | 98.5 | 90.9 | 91.2 | 93.4 | 95.1 | 106 | 95.5 | 101 | 98.7 | 101 | 95.8 | 104 | 87.5 | 87.9 | 80.6 | 89.2 | 97 | 97.7 | 101 | 103 | 89.8 | 88.3 | 88.1 | 91.9 | 86.9 | 85.4 | 83.6
4 | CN(C)C/C=C/C(=O)Nc1ccc(C(=O)Nc2cccc(Nc3ncc(Cl)c(-c4c[nH]c5ccccc45)n3)c2)cc1 | 81.9 | 85.6 | 85.8 | 94.8 | 82.5 | 78.6 | 17.3 | 10.2 | 4.95 | 3.8 | 3.94 | 78 | 85.3 | 84.2 | 89 | 92.9 | 77.1 | 12.3 | 6.62 | 3.34 | 2.59 | 3.22 | 79.7 | 82.9 | 93 | 97 | 93.2 | 77.6 | 17.9 | 11.6 | 5.08 | 2.82 | 3.14
5 | CCCCCNC(=N)N/N=C/c1c[nH]c2ccc(OC)cc12 | 122 | 119 | 121 | 130 | 126 | 139 | 128 | 137 | 121 | 59.8 | 20.2 |  |  |  |  |  |  |  |  |  |  |  |  |  |  |  |  |  |  |  |  |  | 
6 | CCc1ccc(OCc2ccccc2C(=O)Nc2ccc3nc(C)cc(N)c3c2)cc1 | 95.7 | 107 | 110 | 114 | 118 | 116 | 113 | 121 | 110 | 6.84 | 4.54 | 88.2 | 107 | 112 | 113 | 108 | 114 | 118 | 123 | 108 | 41.3 | 4.15 | 89.3 | 103 | 108 | 111 | 104 | 110 | 112 | 121 | 103 | 47.5 | 4.84
7 | CCC(C)CCCCC(=O)N[C@@H](CCN)C(=O)NC(C(=O)N[C@H](CCN)C(=O)N[C@@H]1CCNC(=O)C([C@@H](C)O)NC(=O)[C@@H](CCN)NC(=O)[C@@H](CCN)NC(=O)[C@@H](CC(C)C)NC(=O)[C@H](Cc2ccccc2)NC(=O)[C@H](CCN)NC1=O)[C@@H](C)O (some centres not stated) | 114 | 118 | 117 | 117 | 122 | 128 | 129 | 124 | 129 | 128 | 126 | 114 | 113 | 115 | 120 | 135 | 135 | 134 | 131 | 132 | 132 | 123 | 111 | 110 | 112 | 115 | 117 | 117 | 120 | 134 | 135 | 123 | 124
8 | c1cc(-c2cnn3cc(-c4ccc(OCCN5CCCCC5)cc4)cnc23)ccn1 | 90.3 | 91.1 | 93.8 | 91.8 | 97 | 93.7 | 91.7 | 91.4 | 89.6 | 85.6 | 2.9 | 83.8 | 81.9 | 96.7 | 86.9 | 87.5 | 79 | 76 | 84.2 | 85.9 | 83.2 | 50.5 | 89.2 | 86.8 | 84.1 | 88.5 | 86.8 | 85.4 | 78.8 | 83.7 | 78.2 | 88 | 85.7

From the supplement of paper PMC11451515
